Assay: xn = mol fraction of the nth substance listed
Conditions: Liquid, Taylor dispersion method, x2 = 0

CC(C)CCCC(C)CCCC(C)CCCCC(C)CCCC(C)CCCC(C)C (centres undefined) [2,6,10,15,19,23-hexamethyltetracosane] + O=C=O
Conditions | binary diffusion coefficient [m2/s]
298 K, 1100 kPa | 9.6e-10
298 K, 10000 kPa | 8.6e-10
298 K, 32000 kPa | 6.9e-10
298 K, 52000 kPa | 5.6e-10
298 K, 66000 kPa | 4.9e-10
323 K, 1100 kPa | 1.78e-09
323 K, 10000 kPa | 1.61e-09
323 K, 30000 kPa | 1.35e-09
323 K, 52000 kPa | 1.14e-09
323 K, 64000 kPa | 1.02e-09
348 K, 1000 kPa | 2.83e-09
348 K, 11000 kPa | 2.57e-09
348 K, 31000 kPa | 2.18e-09
348 K, 50000 kPa | 1.94e-09
348 K, 67000 kPa | 1.73e-09
373 K, 1000 kPa | 4.06e-09
373 K, 10000 kPa | 3.72e-09
373 K, 30000 kPa | 3.21e-09
373 K, 47000 kPa | 2.88e-09
373 K, 66000 kPa | 2.58e-09
398 K, 1000 kPa | 5.45e-09
398 K, 11000 kPa | 4.98e-09
398 K, 31000 kPa | 4.38e-09
398 K, 50000 kPa | 3.89e-09
398 K, 66000 kPa | 3.55e-09
423 K, 1000 kPa | 7.01e-09
423 K, 11000 kPa | 6.36e-09
423 K, 30000 kPa | 5.69e-09
423 K, 50000 kPa | 5e-09
423 K, 67000 kPa | 4.6e-09

CCCCCCCCCC [decane] + O=C=O
Conditions | binary diffusion coefficient [m2/s]
298 K, 1100 kPa | 4.69e-09
298 K, 22000 kPa | 4e-09
298 K, 45000 kPa | 3.22e-09
298 K, 68000 kPa | 2.84e-09
323 K, 1100 kPa | 6.44e-09
323 K, 22000 kPa | 5.41e-09
323 K, 46000 kPa | 4.39e-09
323 K, 68000 kPa | 3.91e-09
373 K, 1100 kPa | 1.04e-08
373 K, 22000 kPa | 8.76e-09
373 K, 44000 kPa | 7.08e-09
373 K, 67000 kPa | 6.34e-09
423 K, 1100 kPa | 1.51e-08
423 K, 21000 kPa | 1.27e-08
423 K, 43000 kPa | 1.02e-08
423 K, 66000 kPa | 9.17e-09

CCCCCCCCCCCC [dodecane] + O=C=O
Conditions | binary diffusion coefficient [m2/s]
298 K, 1300 kPa | 3.72e-09
298 K, 24000 kPa | 3.1e-09
298 K, 47000 kPa | 2.65e-09
323 K, 1200 kPa | 5.53e-09
323 K, 25000 kPa | 4.23e-09
323 K, 46000 kPa | 3.65e-09
323 K, 63000 kPa | 3.44e-09
373 K, 1200 kPa | 9.3e-09
373 K, 24000 kPa | 7.57e-09
373 K, 46000 kPa | 6.54e-09
373 K, 61000 kPa | 5.98e-09
423 K, 1200 kPa | 1.35e-08
423 K, 23000 kPa | 1.14e-08
423 K, 46000 kPa | 9.75e-09
423 K, 65000 kPa | 8.65e-09

CCCCCCC [heptane] + O=C=O
binary diffusion coefficient [m2/s]
Conditions | 1000 kPa | 10000 kPa | 30000 kPa | 31000 kPa | 48000 kPa | 49000 kPa | 50000 kPa | 51000 kPa | 67000 kPa | 68000 kPa
298 K | 7.28e-09 | 6.82e-09 | – | 5.9e-09 | – | – | 5.37e-09 | – | – | 5.06e-09
323 K | 9.25e-09 | 8.72e-09 | 7.64e-09 | – | – | – | – | 6.95e-09 | – | 6.37e-09
348 K | 1.14e-08 | 1.02e-08 | 9.4e-09 | – | 8.1e-09 | – | – | – | 7.89e-09 | –
373 K | 1.37e-08 | 1.25e-08 | 1.12e-08 | – | – | 9.95e-09 | – | – | – | 9.32e-09
398 K | 1.61e-08 | 1.49e-08 | 1.31e-08 | – | – | – | 1.17e-08 | – | – | 1.09e-08
423 K | 1.8e-08 | 1.68e-08 | 1.5e-08 | – | – | – | 1.36e-08 | – | – | 1.23e-08

CCCCCCCCCCCCCCCC [hexadecane] + O=C=O
Conditions | binary diffusion coefficient [m2/s]
298 K, 1000 kPa | 2.49e-09
298 K, 10000 kPa | 2.31e-09
298 K, 30000 kPa | 2.08e-09
323 K, 1100 kPa | 3.75e-09
323 K, 10000 kPa | 3.41e-09
323 K, 30000 kPa | 3.17e-09
323 K, 51000 kPa | 2.61e-09
323 K, 69000 kPa | 2.51e-09
348 K, 1000 kPa | 5.13e-09
348 K, 10000 kPa | 4.64e-09
348 K, 30000 kPa | 4.37e-09
348 K, 50000 kPa | 3.77e-09
348 K, 67000 kPa | 3.49e-09
373 K, 1100 kPa | 6.72e-09
373 K, 10000 kPa | 6.17e-09
373 K, 30000 kPa | 5.88e-09
373 K, 52000 kPa | 4.84e-09
373 K, 67000 kPa | 4.67e-09
398 K, 1100 kPa | 8.53e-09
398 K, 29000 kPa | 7.42e-09
398 K, 53000 kPa | 6.27e-09
398 K, 69000 kPa | 5.86e-09
423 K, 1100 kPa | 1.04e-08
423 K, 10000 kPa | 9.72e-09
423 K, 29000 kPa | 9.16e-09
423 K, 45000 kPa | 7.96e-09
423 K, 69000 kPa | 7.07e-09

CCCCCC [hexane] + O=C=O
Conditions | binary diffusion coefficient [m2/s]
298 K, 1300 kPa | 8.32e-09
298 K, 23000 kPa | 7.27e-09
298 K, 49000 kPa | 6.06e-09
298 K, 65000 kPa | 5.13e-09
323 K, 1200 kPa | 1.05e-08
323 K, 22000 kPa | 9.27e-09
323 K, 50000 kPa | 7.61e-09
323 K, 66000 kPa | 7.15e-09
373 K, 1200 kPa | 1.58e-08
373 K, 22000 kPa | 1.34e-08
373 K, 49000 kPa | 1.1e-08
373 K, 64000 kPa | 1.03e-08
423 K, 1200 kPa | 1.87e-08
423 K, 22000 kPa | 1.79e-08
423 K, 48000 kPa | 1.49e-08
423 K, 64000 kPa | 1.37e-08

CCCCCCCC [octane] + O=C=O
Conditions | binary diffusion coefficient [m2/s]
298 K, 1000 kPa | 6.32e-09
298 K, 11000 kPa | 5.66e-09
298 K, 33000 kPa | 4.72e-09
298 K, 50000 kPa | 4.28e-09
298 K, 66000 kPa | 3.83e-09
323 K, 900 kPa | 8.19e-09
323 K, 11000 kPa | 7.36e-09
323 K, 32000 kPa | 6.1e-09
323 K, 51000 kPa | 5.62e-09
323 K, 68000 kPa | 5.1e-09
348 K, 900 kPa | 1.04e-08
348 K, 11000 kPa | 8.98e-09
348 K, 33000 kPa | 7.7e-09
348 K, 50000 kPa | 7.07e-09
348 K, 69000 kPa | 6.54e-09
373 K, 1100 kPa | 1.26e-08
373 K, 11000 kPa | 1.11e-08
373 K, 31000 kPa | 9.46e-09
373 K, 50000 kPa | 8.87e-09
373 K, 67000 kPa | 8.01e-09
398 K, 1100 kPa | 1.48e-08
398 K, 11000 kPa | 1.34e-08
398 K, 31000 kPa | 1.14e-08
398 K, 51000 kPa | 1.06e-08
398 K, 69000 kPa | 9.67e-09
423 K, 1100 kPa | 1.67e-08
423 K, 11000 kPa | 1.62e-08
423 K, 29000 kPa | 1.36e-08
423 K, 51000 kPa | 1.27e-08
423 K, 65000 kPa | 1.14e-08

Cc1ccccc1 [toluene] + O=C=O
Conditions | binary diffusion coefficient [m2/s]
298 K, 1000 kPa | 5.53e-09
298 K, 11000 kPa | 5.09e-09
298 K, 30000 kPa | 4.77e-09
298 K, 48000 kPa | 4.28e-09
298 K, 68000 kPa | 3.92e-09
323 K, 1000 kPa | 7.28e-09
323 K, 10000 kPa | 6.78e-09
323 K, 30000 kPa | 6.32e-09
323 K, 49000 kPa | 5.7e-09
323 K, 66000 kPa | 5.17e-09
348 K, 1000 kPa | 9.26e-09
348 K, 11000 kPa | 8.62e-09
348 K, 30000 kPa | 8.02e-09
348 K, 48000 kPa | 7.31e-09
348 K, 67000 kPa | 6.54e-09
373 K, 1000 kPa | 1.14e-08
373 K, 10000 kPa | 1.04e-08
373 K, 30000 kPa | 9.81e-09
373 K, 51000 kPa | 8.94e-09
373 K, 67000 kPa | 8e-09
398 K, 1000 kPa | 1.38e-08
398 K, 10000 kPa | 1.24e-08
398 K, 30000 kPa | 1.17e-08
398 K, 48000 kPa | 1.05e-08
398 K, 68000 kPa | 9.6e-09
423 K, 1100 kPa | 1.6e-08
423 K, 10000 kPa | 1.5e-08
423 K, 30000 kPa | 1.4e-08
423 K, 50000 kPa | 1.23e-08
423 K, 67000 kPa | 1.14e-08

From the NIST ThermoML archive (doi:10.1021/acs.jced.6b00691)
